# Patent US12133486B2, “Methods of propagation of arbuscular mycorrhizal fungi (AMF) and uses thereof” (Terra Microbes, LLC, priority 2021, dated 2024)
# Tested on: AM fungi infection of yellow sweet clover (Melilotus officinalis) roots
# Assay: Pot study: AM infection level of yellow sweet clover roots
# Type: in vivo
# Conditions: YBSC plants; 80 ppm treatment P; 66 days; infected 1.1 mm root segments per 80 examined
# From the text: This Example is an un-replicated study to examine whether PO3^−3 (phosphite) impacts spore production and infection rate of AM fungi. The fungi were a mixed inoculum source from the University of West Virginia (UWV). UWV holds and maintains the International Culture Collection of (Vesicular) Arbuscular Mycorrhizal Fungi (INVAM). The plant used was yellow blossom sweet clover (Melilotus officinalis). All pots were inoculated, but only half were planted. Each Experimental unit was a 20 cm pot. Substrate for the units were a soil, sand, and inoculum mixture.
# The present example was designed as a pot experiment where each pot was a treatment, the treatments being untreated controls, units treated with phosphate, and units treated with phosphite. All pots were a mixture of steamed ML soil, sand, and inoculum. Control units (pots) received no other treatment. Phosphate pots were treated with K2HPO4. Phosphite pots were treated with an equivalent molarity (concentration) of P as K2HPO3.
# Half of the pots (a control, phosphate, and phosphite treatments) were planted with yellow sweet clover seed. The other half of the pots (also a control, phosphate, and phosphite treatment) were not planted with any plants.
# Phosphate and phosphite were added to the soil materials such that the phosphorus in each would constitute 80 mg per kg of soil (Table 6). […]
structure (smiles),measurement,value
"OP(O)O [PO3, dipotassium phosphite]","AM Infection level, %",35%
"O=P([O-])([O-])O.[K+].[K+] [PO4, dipotassium phosphate]","AM Infection level, %",47.5%
